IC50 data for eleven compounds are collected here from ChEMBL document CHEMBL3875176, “Synthesis and evaluation of in vitro antiproliferative activity of new ethyl 3-(arylethynyl)quinoxaline-2-carboxylate and pyrido[4,3-b]quinoxalin-1(2H)-one derivatives” (Eur J Med Chem, 2016).

Assay [1] in a line: Antiproliferative activity against human A549 cells after 72 hrs by MTT assay. Format: functional, cell-based. The conditions noted are these: A549, 72 h. On the technique in general: Tetrazolium dyes change colour on reduction, which living cells bring about.
Assay [2] in a line: Antiproliferative activity against human U87MG cells after 72 hrs by MTT assay. Format: functional, cell-based, U-87MG ATCC. The conditions noted are these: U-87 MG.

pIC50: −log10 of the molar value.

For the compound `CCOC(=O)c1nc2ccccc2nc1C#Cc1ccccc1`, the negative-log IC50 (pIC50) in assay [1] and in assay [2] was 5.48 in each case.

As for `O=c1c2nc3ccccc3nc2cc(-c2ccccc2)n1-c1ccccc1`, the values for the pIC50 in assay [1] and in assay [2] were 4.33 and 4.67, respectively.

Turning to `Cc1ccc(-c2cc3nc4ccccc4nc3c(=O)n2-c2ccccc2)cc1`, the pIC50 in assay [1] was 4.40; in assay [2] it was 4.63.

In the case of `CCOC(=O)c1nc2ccccc2nc1C#Cc1ccccc1OC`, the pIC50 in assay [1] is 5.10; in assay [2], 4.94.

For the compound `CCOC(=O)c1nc2ccccc2nc1C#CC1CC1`, the pIC50 in assay [1] was 5.12; in assay [2] it was 5.21.

On to `CCOC(=O)c1nc2ccccc2nc1C#Cc1ccccc1C`, for which the pIC50 is 4.57 in assay [1] and 4.50 in assay [2].

On to `CCOC(=O)c1nc2ccccc2nc1C#Cc1cccc(F)c1`, for which the pIC50 is 5.52 in assay [1] and 5.72 in assay [2].

As for `CCOC(=O)c1nc2ccccc2nc1C#Cc1ccc(C)cc1`, the pIC50 in assay [1] and in assay [2] was 5.48 each time.

`CCOC(=O)c1nc2ccccc2nc1C#Cc1cccc(C)c1`: the pIC50 in assay [1] is 5.19; in assay [2], 5.26.

Consider `O=c1c2nc3ccccc3nc2cc(-c2ccccc2)n1-c1ccc(Cl)cc1`, for which the pIC50 in assay [1] was 4.37; in assay [2], 4.46.

With `CCOC(=O)c1nc2ccccc2nc1C#CC1CCCC1`, the pIC50 in assay [1] was 4.95; in assay [2] it was 4.94.

Broadly, the pIC50 is −log10 of the IC50, conventionally taken in molar units.
